Assay results reported in patent US20090215029A1, “METHODS OF ISOLATING AND PURIFYING NUCLEIC ACID-BINDING BIOMOLECULES AND COMPOSITIONS INCLUDING SAME” (CytoCure, Inc., priority 2007, published 2009).
Where two headings read alike, the source gives them in different places.

Legend:
[1] = tested on: nucleic acids to a bound factor; assay: Cross-linking / fixative activity: effectiveness in covalently linking nucleic acids to a bound factor; format: biochemical
Procedure: Several cross-linking fixatives incorporating a nucleic acid binding group covalently coupled with a primary amine-binding group were synthesized. These agents were assayed to determine effectiveness covalently linking nucleic acids to a bound factor.

whole cells = assay: Combination crosslinking, first and second agents added to whole cells; format: cell-based; conditions: combination with second agent EGS (amine binding); both added more or less simultaneously to whole cells, not less than 30 minutes, room temperature to 37 Celsius
Procedure: Note: For Combination crosslinking experiments, both the First and Second agents are added more or less simultaneously to whole cells (ethidium bromide requires prior membrane permeabilization) for not less than 30 minutes at room temperature to 37 Celsius.

## 2,5-dioxopyrrolidin-1-yl-2-(4-(3-methylthioureido)-4-oxobutanoyloxy)ethyl succinate chloro(ethylenediamine)platinum(II) complex
[1]
  Activity: Some

## C1OC1C1CO1 (stereo not drawn) [1,3 butadiene diepoxide]
[1]
  Activity as fixative agent: some activity

## Cc1oc2c(C)c3oc(=O)cc(C)c3cc2c1CN [4-aminomethyl trioxsalen]
Whole cells
  Activity: Weak

## O=C(CCC(=O)OCCOC(=O)CCC(=O)ON1C(=O)CCC1=O)NC(Cc1ccc(N(CCCl)CCCl)cc1)C(=O)O (stereo not drawn) [A, 3-(4-(bis(2-chloroethyl)amino)phenyl)-2-(4-(2-(4-(2,5-dioxopyrrolidin-1-yloxy)-4-oxobutanoyloxy)ethoxy)-4-oxobutanamido)propanoic acid]
[1]
  Activity: Strong

## CC[n+]1c(-c2ccccc2)c2cc(N=[N+]=[N-])ccc2c2ccc(NC(=O)CCC(=O)OCCOC(=O)CCC(=O)ON3C(=O)CCC3=O)cc21.[Br-] [B, 8-azido-3-(4-(2-(4-(2,5-dioxopyrrolidin-1-yloxy)-4-oxobutanoyloxy)ethoxy)-4-oxobutanamido)-5-ethyl-6-phenylphenanthridinium bromide]
[1]; synthesized compounds: DNA-binding moiety coupled with NHS ester protein-binding moiety
  Activity: Strong

## N.N.[Cl][Pt][Cl] [Cisplatin]
Whole cells
  Activity: Strong

## CC[n+]1c(-c2ccccc2)c2cc(N=[N+]=[N-])ccc2c2ccc(N)cc21.[Br-] [Ethidium bromide monoazide, 3-Amino-8-azido-5-ethyl-6-phenylphenanthridinium bromide]
Whole cells
  Activity: Strong

## O=CCCCC=O [glutaraldehyde]
[1]; additional fixative agents
  Activity as fixative agent: some activity

## O=CC=O [glyoxal]
[1]
  Activity as fixative agent: some activity
